The term IC50 denotes the concentration that gives 50% inhibition. Higher therefore signals weaker potency in that assay.

This assay has as its target α-glucosidase. Description: pNPG hydrolysis assay, absorbance at […] nm, pH […]. The class given is biochemical.

With `O=C(O[C@@H]1Cc2c(O)cc(O)cc2O[C@@H]1c1cc(O)c(O)c(O)c1)c1cc(O)c(O)c(O)c1` [EGCG], the IC50 turned out to be 129 µM.
The same measure for `CCN1C(=O)CC[C@@H]1c1c(O)cc(O)c2c1O[C@H](c1cc(O)c(O)c(O)c1)[C@H](OC(=O)c1cc(O)c(O)c(O)c1)C2` [R-EGCG-cThea]: 70.3 µM.
The same measure for `CCN1C(=O)CC[C@H]1c1c(O)cc(O)c2c1O[C@H](c1cc(O)c(O)c(O)c1)[C@H](OC(=O)c1cc(O)c(O)c(O)c1)C2` [S-EGCG-cThea]: 162 µM.

Source of the values: PMC8658928, “Isolation of N-Ethyl-2-pyrrolidinone-Substituted Flavanols from White Tea Using Centrifugal Countercurrent Chromatography Off-Line ESI-MS Profiling and Semi-Preparative Liquid Chromatography” (Molecules, 2021).
